Results on 39 molecules are retold here after patent publication US20100022509A1, “Inhibitors of MshC and Homologs Thereof, and Methods of Identifying Same” (priority 2006, published 2010).

Structures are written as SMILES. Where two headings read alike, the source gives them in different places.

For this test, the target named is T1, MshC (Mycobacterium tuberculosis, UniProt P9WJM9).
T1 sequence (P9WJM9 1-414): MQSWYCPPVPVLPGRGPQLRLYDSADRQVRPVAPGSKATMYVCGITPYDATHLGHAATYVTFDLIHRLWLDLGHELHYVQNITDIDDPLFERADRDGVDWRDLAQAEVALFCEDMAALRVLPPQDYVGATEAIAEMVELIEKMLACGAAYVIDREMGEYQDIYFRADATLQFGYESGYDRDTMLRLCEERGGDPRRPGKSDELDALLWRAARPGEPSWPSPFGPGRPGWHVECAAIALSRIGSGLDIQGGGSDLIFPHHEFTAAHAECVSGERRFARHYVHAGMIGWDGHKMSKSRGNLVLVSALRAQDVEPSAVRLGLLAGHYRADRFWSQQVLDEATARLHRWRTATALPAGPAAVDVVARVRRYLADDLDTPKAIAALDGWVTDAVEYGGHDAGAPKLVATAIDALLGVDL
The test can be described thus: biochemical. The class given is biochemical, M. tuberculosis.

One may read the IC50 as the point on the concentration scale where inhibition reaches its midpoint. Read a high IC50 as a need for much substance. `CCCCN(CC)CCCNC(=O)c1ccc2c(c1)N(CC)C(=O)c1ccccc1S2(=O)=O` [Inhibitor 83-20] had an IC50 (IC50) above 3000 µM. Consider `O=C(NCCCN1CCOCC1)c1ccc2c(c1)N(Cc1ccccc1)C(=O)c1ccccc1[S+]2[O-]` (centres unmarked) [Inhibitor 83-10], for which the 50% inhibitory concentration (IC50) (IC50) is above 3000 µM. Take `CCCN(CCC)CCCNC(=O)c1ccc2c(c1)N(Cc1cccc(Cl)c1)C(=O)c1ccccc1[S+]2[O-]` (centres unmarked) [Inhibitor 83-73]: the “inhibition of MshC in words, 1,3-diaminopropyl residue with remote amino residue capable of protonation” value (“inhibition of MshC in words … of protonation” for short) is “measurable inhibition” and the “inhibition of MshC in words, Z is a benzyl moiety bearing one or more halogens” value is given as “Measurable inhibition”. For the same molecule, the half-maximal inhibitory concentration (IC50) (IC50) is around 200 µM. Further, the “inhibition of MshC in words, compounds grouped by X” value (shortened to “inhibition of MshC in words … by X”) (X=S, X=SO, X=SO2) was “Significant inhibition”. In the case of `CCN(C(=O)c1ccc2c(c1)N(Cc1cccc(Cl)c1)C(=O)c1ccccc1S2(=O)=O)c1ccccc1` [Inhibitor 1966], the IC50 (IC50, μM) is above 3000 µM. Turning to `O=C(NCCCN1CCC(Cc2ccccc2)CC1)c1ccc2c(c1)N(Cc1ccc(Cl)cc1)C(=O)c1ccccc1S2(=O)=O` [Inhibitor 83-33], the “inhibition of MshC in words, compounds lacking the basic amino group or with groups in excess of 10 carbons on the remote amino residue” value (from here on “inhibition of MshC … on the remote amino residue”) is given as “little or no inhibition”. Further, the IC50 (IC50) is above 3000 µM. As for `CN(CCCNC(=O)c1ccc2c(c1)N(Cc1ccccc1F)C(=O)c1ccccc1[S+]2[O-])C1CCCCC1` (centres unmarked) [Inhibitor 83-03], the IC50 (IC50) was above 3000 µM. In the case of `CN(CCCNC(=O)c1ccc2c(c1)N(Cc1cccc(Cl)c1)C(=O)c1ccccc1[S+]2[O-])c1ccccc1` (centres unmarked) [Inhibitor 83-63], the IC50 (IC50) was above 2000 µM. `CCN1C(=O)c2ccccc2Sc2ccc(C(=O)NCCCN(CC(C)C)CC(C)C)cc21` [Inhibitor 1751] showed an IC50 (IC50, μM) above 3000 µM.

For the molecule `CC1CC(C)CN(CCCNC(=O)c2ccc3c(c2)N(Cc2ccccc2)C(=O)c2ccccc2S3(=O)=O)C1` (centres unmarked) [Inhibitor 83-49], where the note is “IC50”, the half-inhibitory concentration (IC50) was around 2000 µM.

As for `O=C(NCCN1CCCCCC1)c1ccc2c(c1)N(Cc1cccc(Cl)c1)C(=O)c1ccccc1[S+]2[O-]` (centres unmarked) [Inhibitor 83-75], the “inhibition of MshC in words … of protonation” value was “measurable inhibition” and the “inhibition of MshC in words, Z is a benzyl moiety bearing one or more halogens” value is given as “Measurable inhibition”. The molecule further yielded a concentration for half-maximal inhibition (IC50) (IC50) of around 80 µM. Besides, the “inhibition of MshC in words … by X” value (X=S, X=SO, X=SO2) is listed as “Significant inhibition”. Where the note is “IC50”, `Cc1cccc(CN2C(=O)c3ccccc3S(=O)(=O)c3ccc(C(=O)NCCCN4CCCC4)cc32)c1` [Inhibitor 83-22] had an IC50 above 3000 µM.

For the molecule `CCOCCCNC(=O)c1ccc2c(c1)N(Cc1cccc(Cl)c1)C(=O)c1ccccc1[S+]2[O-]` (centres unmarked) [Inhibitor 1939], the “inhibition of MshC … on the remote amino residue” value is on record as “little or no inhibition”. For the same molecule, the IC50 (IC50, μM) stood at 3200 ± 1000 µM. In turn, `CCN1CCN(CCCNC(=O)c2ccc3c(c2)N(Cc2ccccc2)C(=O)c2ccccc2S3(=O)=O)CC1` [Inhibitor 83-50] came in with an IC50 (IC50) above 3000 µM. Molecule `CCN1C(=O)c2ccccc2[S+]([O-])c2ccc(C(=O)NCCN3CCCCCC3)cc21` (centres unmarked) [Inhibitor 1081] displayed an IC50 (IC50, μM) above 3000 µM. `CCN1C(=O)c2ccccc2Sc2ccc(C(=O)NCCCN3CCCCC3)cc21` [Inhibitor 1754]: the IC50 (IC50, μM) was around 2000 µM. Moreover, the “inhibition of MshC in words … by X” value (X=S, X=SO, X=SO2) is recorded as “Significant inhibition”. Take `O=C(NCCCN1CCC(Cc2ccccc2)CC1)c1ccc2c(c1)N(Cc1ccccc1F)C(=O)c1ccccc1[S+]2[O-]` (centres unmarked) [Inhibitor 83-02]: the “inhibition of MshC … on the remote amino residue” value is given as “little or no inhibition”. Where the note is “IC50”, this molecule displayed a concentration for half-maximal inhibition (IC50) above 3000 µM. As for `CN(CCNC(=O)c1ccc2c(c1)N(Cc1ccccc1)C(=O)c1ccccc1S2(=O)=O)C1CCCCC1` [Inhibitor 83-54], the “inhibition of MshC in words … of protonation” value was “measurable inhibition” and the “inhibition of MshC in words, Z benzyl moiety with methyl groups in the 2,5 positions or unsubstituted” value is “Weak but detectable inhibition”. The 50% inhibitory concentration (IC50) (IC50) came to 510 ± 80 µM. Further, the “inhibition of MshC in words … by X” value (X=S, X=SO, X=SO2) was “Significant inhibition”. `CCCCN(CCCC)CCCNC(=O)c1ccc2c(c1)N(CC)C(=O)c1ccccc1[S+]2[O-]` (centres unmarked) [Inhibitor 83-17]: the 50% inhibitory concentration (IC50) (IC50) was above 3000 µM. As for `CC1CCCN(CCCNC(=O)c2ccc3c(c2)N(Cc2cccc(Cl)c2)C(=O)c2ccccc2[S+]3[O-])C1` (centres unmarked) [Inhibitor 83-64], the “inhibition of MshC in words … of protonation” value is recorded as “measurable inhibition” and the “inhibition of MshC in words, Z is a benzyl moiety bearing one or more halogens” value is on record as “Measurable inhibition”. This molecule also gave a half-inhibitory concentration (IC50) (IC50) of 150 ± 30 µM. Besides, the “inhibition of MshC in words … by X” value (X=S, X=SO, X=SO2) is reported as “Significant inhibition”. Turning to `CCN1C(=O)c2ccccc2[S+]([O-])c2ccc(C(=O)NCCCN3CCOCC3)cc21` (centres unmarked) [Inhibitor 1075], the IC50 (IC50, μM) was above 3000 µM.

For the molecule `CN(C)CCCNC(=O)c1ccc2c(c1)N(Cc1ccc(Cl)cc1)C(=O)c1ccccc1[S+]2[O-]` (centres unmarked) [Inhibitor 1028], the “inhibition of MshC in words … of protonation” value is “measurable inhibition”; the “inhibition of MshC in words, Z is a benzyl moiety bearing one or more halogens” value is “Measurable inhibition”; the “inhibition of MshC in words … by X” value is on record as “Significant inhibition”. The molecule further yielded an IC50 (IC50, μM) of 335 ± 15 µM. On to `O=C(NCCN1CCN(Cc2ccccc2)CC1)c1ccc2c(c1)N(Cc1cccc(Cl)c1)C(=O)c1ccccc1[S+]2[O-]` (centres unmarked) [Inhibitor 83-62], for which the “inhibition of MshC … on the remote amino residue” value is recorded as “little or no inhibition”. Under “IC50”, this molecule showed a concentration for half-maximal inhibition (IC50) of 2100 ± 900 µM. For the molecule `O=C(NCCN1CCCC1)c1ccc2c(c1)N(Cc1ccccc1F)C(=O)c1ccccc1S2(=O)=O` [Inhibitor 83-39], the “inhibition of MshC in words … of protonation” value is given as “measurable inhibition” and the “inhibition of MshC in words, Z is a benzyl moiety bearing one or more halogens” value was “Measurable inhibition”. Also, the IC50 (IC50) came to 100 ± 20 µM. The “inhibition of MshC in words … by X” value (X=S, X=SO, X=SO2) is on record as “Significant inhibition”. Under “IC50”, `CC1CCCN(CCCNC(=O)c2ccc3c(c2)N(Cc2ccccc2)C(=O)c2ccccc2S3(=O)=O)C1` (centres unmarked) [Inhibitor 83-51] yielded a half-inhibitory concentration (IC50) of 1700 ± 400 µM. On to `CCC1CCCCN1CCCNC(=O)c1ccc2c(c1)N(Cc1ccccc1F)C(=O)c1ccccc1[S+]2[O-]` (centres unmarked) [Inhibitor 1137], for which the “inhibition of MshC in words … of protonation” value is recorded as “measurable inhibition” and the “inhibition of MshC in words, Z is a benzyl moiety bearing one or more halogens” value was “Measurable inhibition”. In addition, where the note is “IC50, μM”, the IC50 was determined as 1400 ± 700 µM. The “inhibition of MshC in words … by X” value (X=S, X=SO, X=SO2) is reported as “Significant inhibition”.

`Cc1ccc(C)c(CN2C(=O)c3ccccc3S(=O)(=O)c3ccc(C(=O)NCCN4CCCCC4C)cc32)c1` (centres unmarked) [Inhibitor 83-45] yielded a concentration for half-maximal inhibition (IC50) (IC50) above 3000 µM. Turning to `CCN1C(=O)c2ccccc2S(=O)(=O)c2ccc(C(=O)NCCCN3CCCCCC3)cc21` [Inhibitor 83-19], the IC50 (IC50) is around 3000 µM. `CN(CCc1ccccc1)C(=O)c1ccc2c(c1)N(Cc1cccc(Cl)c1)C(=O)c1ccccc1S2(=O)=O` [Inhibitor 1943] yielded a 50% inhibitory concentration (IC50) (IC50, μM) above 3000 µM. Where the note is “IC50”, `CCC1CCCCN1CCCNC(=O)c1ccc2c(c1)N(Cc1ccccc1F)C(=O)c1ccccc1[S+]2[O-]` (centres unmarked) [Inhibitor 83-01] had a half-maximal inhibitory concentration (IC50) above 3000 µM. `CC1CCCN(CCCNC(=O)c2ccc3c(c2)N(Cc2cccc(Cl)c2)C(=O)c2ccccc2S3(=O)=O)C1` (centres unmarked) [Inhibitor 83-57] had a concentration for half-maximal inhibition (IC50) (IC50) of around 1000 µM. `O=C(NCc1cccs1)c1ccc2c(c1)N(Cc1cccc(Cl)c1)C(=O)c1ccccc1S2` [Inhibitor 1781] registered a 50% inhibitory concentration (IC50) (IC50, μM) above 3000 µM. The molecule `CN(CCCNC(=O)c1ccc2c(c1)N(Cc1cccc(Cl)c1)C(=O)c1ccccc1S2(=O)=O)c1ccccc1` [Inhibitor 83-59] gave an IC50 (IC50) above 3000 µM. As for `O=C(NCCCN1CCOCC1)c1ccc2c(c1)N(Cc1cccc(Cl)c1)C(=O)c1ccccc1[S+]2[O-]` (centres unmarked) [Inhibitor 83-70], the “inhibition of MshC in words … of protonation” value is on record as “measurable inhibition”; the “inhibition of MshC in words, Z is a benzyl moiety bearing one or more halogens” value is listed as “Measurable inhibition”; the “inhibition of MshC in words … by X” value is given as “Significant inhibition”. The half-maximal inhibitory concentration (IC50) (IC50) stood at 470 ± 130 µM. Regarding `Cc1ccc(C)c(CN2C(=O)c3ccccc3S(=O)(=O)c3ccc(C(=O)NCCCN4CCOCC4)cc32)c1` [Inhibitor 83-43], the IC50 (IC50) is above 3000 µM. Consider `O=C(NCC1CCCN1)c1ccc2c(c1)N(Cc1cccc(Cl)c1)C(=O)c1ccccc1S2(=O)=O` (centres unmarked) [Inhibitor 1947], for which the “inhibition of MshC in words, Z is a benzyl moiety bearing one or more halogens” value is given as “Measurable inhibition” and the “inhibition of MshC in words … by X” value is “Significant inhibition”. This molecule also displayed an IC50 (IC50, μM) of 2300 ± 300 µM.

For the setting “IC50”, `CC1CCCCN1CCNC(=O)c1ccc2c(c1)N(Cc1ccc(Cl)cc1)C(=O)c1ccccc1S2(=O)=O` (centres unmarked) [Inhibitor 83-30] returned an IC50 above 3000 µM. `CCC1CCCCN1CCCNC(=O)c1ccc2c(c1)N(Cc1ccc(Cl)cc1)C(=O)c1ccccc1S2(=O)=O` (centres unmarked) [Inhibitor 83-27]: the “inhibition of MshC in words … of protonation” value was “measurable inhibition” and the “inhibition of MshC in words, Z is a benzyl moiety bearing one or more halogens” value is listed as “Measurable inhibition”. Also, the IC50 (IC50) was 700 ± 250 µM. For the same molecule, the “inhibition of MshC in words … by X” value (X=S, X=SO, X=SO2) is “Significant inhibition”. For `O=C(NCCCN1CCN(c2ccc(F)cc2)CC1)c1ccc2c(c1)N(Cc1ccc(Cl)cc1)C(=O)c1ccccc1S2(=O)=O` [Inhibitor 83-32], the “inhibition of MshC … on the remote amino residue” value is “little or no inhibition”. Besides, the IC50 (IC50) was around 2000 µM. Where the note is “IC50”, `CCCN(CCC)CCCNC(=O)c1ccc2c(c1)N(CC)C(=O)c1ccccc1[S+]2[O-]` (centres unmarked) [Inhibitor 83-16] returned an IC50 above 3000 µM.
